Results as given in article PMC4314399 (Cell calcium, 2014).
Read-outs that look alike come from different tables or passages of the source.

Legend:
[1] = target: T1, Orai1 (Homo sapiens, UniProt Q13586+Q96D31); test: fura-2 Ca2+ add-back; type: cell-based
[2] = target: T1, Orai1; test: fura-2 Ca2+ add-back; type: cell-based; remark: listed apart in the source

T1 sequence (Q96D31 whole entry): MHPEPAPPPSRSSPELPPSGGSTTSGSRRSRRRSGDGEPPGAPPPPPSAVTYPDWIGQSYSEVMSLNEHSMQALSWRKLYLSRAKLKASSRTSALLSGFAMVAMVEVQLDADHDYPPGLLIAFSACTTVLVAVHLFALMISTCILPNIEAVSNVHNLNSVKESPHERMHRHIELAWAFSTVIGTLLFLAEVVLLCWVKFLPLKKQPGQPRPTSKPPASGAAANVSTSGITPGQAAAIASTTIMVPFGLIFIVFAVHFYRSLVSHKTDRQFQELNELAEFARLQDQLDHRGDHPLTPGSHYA
T1 sequence (Q13586 23-685): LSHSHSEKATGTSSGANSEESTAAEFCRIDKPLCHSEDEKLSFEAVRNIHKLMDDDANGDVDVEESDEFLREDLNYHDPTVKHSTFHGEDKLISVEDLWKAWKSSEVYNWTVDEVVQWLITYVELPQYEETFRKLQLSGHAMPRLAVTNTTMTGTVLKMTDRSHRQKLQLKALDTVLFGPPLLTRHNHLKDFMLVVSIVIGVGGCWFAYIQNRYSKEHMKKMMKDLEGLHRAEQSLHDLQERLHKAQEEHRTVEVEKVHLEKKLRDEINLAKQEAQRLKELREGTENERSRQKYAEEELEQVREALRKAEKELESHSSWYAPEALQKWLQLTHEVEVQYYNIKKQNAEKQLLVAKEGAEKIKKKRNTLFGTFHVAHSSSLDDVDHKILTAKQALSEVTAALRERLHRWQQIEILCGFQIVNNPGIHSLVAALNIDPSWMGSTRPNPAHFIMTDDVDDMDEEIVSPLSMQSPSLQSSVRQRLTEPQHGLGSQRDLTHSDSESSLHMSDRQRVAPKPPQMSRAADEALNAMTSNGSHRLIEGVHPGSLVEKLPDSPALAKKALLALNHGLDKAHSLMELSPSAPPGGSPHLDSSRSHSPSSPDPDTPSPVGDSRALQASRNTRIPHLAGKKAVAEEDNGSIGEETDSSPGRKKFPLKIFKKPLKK

IC50 [1]	IC50 [2]	Substance
~200 nM		DPB162-AE
	~600 nM	DPB163-AE
